This is an account of results in patent US8334126B2, “Coryneform host-vector systems comprising a chromosomal ALR gene which is attenuated or eliminated and methods of using” (priority 2000, dated 2012).

The subject of assay [1] is Corynebacterium glutamicum ATCC13032[pTET3]. The experiment in a line: Minimum inhibitory concentration, dilution antimicrobial susceptibility test (NCCLS M7-A4). The assay is classed as cell-based. The following applies: transformed strain ATCC13032[pTET3]; MÜLLER-HINTON-Bouillon.
Excerpt: (§1) The nutrient medium required for this test, “MÜLLER-HINTON-Bouillon”, was obtained from Merck KgaA (Darmstadt, Germany) and employed in accordance with the manufacturer's instructions. […] The plasmid DNA isolated from Corynebacterium glutamicum LP-6 with the aid of an alkaline lysis method (“NucleoBond Nucleic Acid Purification Kits and Cartridges User Manual (PT3167-1)”, Clonetech Laboratories GmbH, Heidelberg, Germany, 1997 I.B.R.) was then transferred to Corynebacterium glutamicum ATCC13032 by electrotransfer.
Assay [2] concerns Corynebacterium glutamicum ATCC13032. The assay is described as above. The note with it: sensitive control strain ATCC13032; MÜLLER-HINTON-Bouillon. The assay is classed as cell-based.
Excerpt: as §1
Assay [3] deals with Corynebacterium glutamicum LP-6. The note with it: resistant test strain LP-6; MÜLLER-HINTON-Bouillon.
Excerpt: as §1

Take `CN(C)[C@@H]1C(O)=C(C(N)=O)C(=O)[C@@]2(O)C(O)=C3C(=O)c4c(O)cccc4[C@@](C)(O)[C@H]3C[C@@H]12` [Tetracycline, tetracycline]: the Minimum inhibitory concentration result is listed as “≦12 μg tetracycline per ml” in assay [1], “≦0.75 μg tetracycline per ml” in assay [2] and “≦12 μg tetracycline per ml” in assay [3].
